These results are taken from patent US9765074B2, “Inhibitors of the renal outer medullary potassium channel” (Merck Sharp & Dohme Corp., priority 2013, dated 2017).

Structures are written as SMILES.

The target of this assay is T1, hROMK (hKir1.1) (Homo sapiens, UniProt P48048).
T1 construct: expressed in transfected cells
T1 sequence (P48048 1-391): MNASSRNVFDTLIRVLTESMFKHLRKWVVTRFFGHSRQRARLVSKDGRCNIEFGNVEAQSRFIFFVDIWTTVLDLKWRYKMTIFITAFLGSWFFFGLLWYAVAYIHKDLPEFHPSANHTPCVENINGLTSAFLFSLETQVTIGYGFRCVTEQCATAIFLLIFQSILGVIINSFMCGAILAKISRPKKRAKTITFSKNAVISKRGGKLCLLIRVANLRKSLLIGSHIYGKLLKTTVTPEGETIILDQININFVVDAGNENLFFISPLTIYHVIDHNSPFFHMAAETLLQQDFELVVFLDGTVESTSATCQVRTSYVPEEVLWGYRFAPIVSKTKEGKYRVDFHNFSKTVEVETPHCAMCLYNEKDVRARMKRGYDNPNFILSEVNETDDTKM
Nature of the assay: Thallium Flux Assay (ROMK channel functional thallium flux, FLIPR-Tetra). It is filed as cell-based. Particulars: HEK293 cells stably expressing hROMK (hKir1.1); 30 min compound incubation. The gist of the method:
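HEK293 cells stably expressing hKir1.1, loaded with FluxOR dye for 90 min, then preincubated with compound for 30 min at ambient temperature with 0.3 mM ouabain and probenecid. Stimulated with 3 mM thallium/0.3 mM potassium (final); fluorescence read ~10 min. Normalized to 3 μM reference ROMK inhibitor; IC50 from inhibition of flux.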

Turning to `O=C1C=C(N2CCC3(CCN(C[C@@H](O)c4ccc(-n5cnnn5)cc4F)CC3)C2=O)CO1` [Example 14, 8-{(2S)-2-[2-fluoro-4-(1H-tetrazol-1-yl)phenyl]-2-hydroxyethyl}-1-oxo-2-(5-oxo-2,5-dihydrofuran-3-yl)-2-aza-8-azoniaspiro[4.5]decane], the IC50 (usually the concentration at which inhibition is half-maximal) was 0.02 µM. This counts as double-digit nanomolar. Compound `COc1cc(-n2cnnn2)ccc1[C@@H](O)CN1CCC2(CC1)CCN(C1=CC(=O)OC1)C2=O` [Example 15, 8-{(2R)-2-hydroxy-2-[2-methoxy-4-(1H-tetrazol-1-yl)phenyl]ethyl}-1-oxo-2-(5-oxo-2,5-dihydrofuran-3-yl)-2-aza-8-azoniaspiro[4.5]decane] came in with an IC50 of 0.01 µM. Compared with the last compound, the IC50 is about 2-fold lower. In the case of `COc1cc(-n2cnnn2)ccc1[C@H](O)CN1CCC2(CC1)CCN(C1=CC(=O)OC1)C2=O` [Example 16, 8-{(2S)-2-hydroxy-2-[2-methoxy-4-(1H-tetrazol-1-yl)phenyl]ethyl}-1-oxo-2-(5-oxo-2,5-dihydrofuran-3-yl)-2-aza-8-azoniaspiro[4.5]decane], the IC50 was 0.02 µM. Compared with the last compound, the IC50 is about 2-fold higher.

With `CC1=C(N2CCC3(CCN(C[C@H](O)c4cnc(-n5cnnn5)nc4)CC3)C2=O)COC1=O` [Example 17, 8-{(2R)-2-hydroxy-2-[2-(1H-tetrazol-1-yl)pyrimidin-5-yl]ethyl}-2-(4-methyl-5-oxo-2,5-dihydrofuran-3-yl)-1-oxo-2-aza-8-azoniaspiro[4.5]decane], the IC50 worked out at 0.03 µM. With `CC1=C(N2CCC3(CCN(C[C@H](O)c4ccc(-n5cnnn5)nc4)CC3)C2=O)COC1=O` [Example 18, 8-{(2R)-2-hydroxy-2-[6-(1H-tetrazol-1-yl)pyridin-3-yl]ethyl}-2-(4-methyl-5-oxo-2,5-dihydrofuran-3-yl)-1-oxo-2-aza-8-azoniaspiro[4.5]decane], the IC50 is 0.01 µM. `CC1=C(N2CCC3(CCN(C[C@@H](O)c4ccc(-n5cnnn5)nc4)CC3)C2=O)COC1=O` [Example 19, 8-{(2S)-2-hydroxy-2-[6-(1H-tetrazol-1-yl)pyridin-3-yl]ethyl}-2-(4-methyl-5-oxo-2,5-dihydrofuran-3-yl)-1-oxo-2-aza-8-azoniaspiro[4.5]decane] registered an IC50 of 0.03 µM. The same measure for `CC1=C(N2CCC3(CCN(C[C@H](O)c4ccc(-n5cnnn5)nc4C)CC3)C2=O)COC1=O` [Example 20, 8-{(2R)-2-hydroxy-2-[2-methyl-6-(1H-tetrazol-1-yl)pyridin-3-yl]ethyl}-2-(4-methyl-5-oxo-2,5-dihydrofuran-3-yl)-1-oxo-2-aza-8-azoniaspiro[4.5]decane]: 0.03 µM; for `CC1=C(N2CCC3(CCN(C[C@@H](O)c4ccc(-n5cnnn5)nc4C)CC3)C2=O)COC1=O` [Example 21, 8-{(2S)-2-hydroxy-2-[2-methyl-6-(1H-tetrazol-1-yl)pyridin-3-yl]ethyl}-2-(4-methyl-5-oxo-2,5-dihydrofuran-3-yl)-1-oxo-2-aza-8-azoniaspiro[4.5]decane]: 0.04 µM. As to `CC1=C(N2CCC3(CCN(C[C@H](O)c4ccc(-n5cnnn5)cn4)CC3)C2=O)COC1=O` [Example 22, 8-{(2S)-2-hydroxy-2-[5-(1H-tetrazol-1-yl)pyridin-2-yl]ethyl}-2-(4-methyl-5-oxo-2,5-dihydrofuran-3-yl)-1-oxo-2-aza-8-azoniaspiro[4.5]decane], the IC50 is 0.01 µM.

`CC1=C(N2CCC3(CCN(C[C@@H](O)c4ccc(-n5cnnn5)cn4)CC3)C2=O)COC1=O` [Example 23, 8-{(2R)-2-hydroxy-2-[5-(1H-tetrazol-1-yl)pyridin-2-yl]ethyl}-2-(4-methyl-5-oxo-2,5-dihydrofuran-3-yl)-1-oxo-2-aza-8-azoniaspiro[4.5]decane] registered a half-inhibitory concentration (IC50) of 0.02 µM. The same measure for `CC1=C(N2CCC3(CCN(C[C@H](O)c4cnc(-n5cnnn5)cn4)CC3)C2=O)COC1=O` [Example 24, 8-{(2S)-2-hydroxy-2-[5-(1H-tetrazol-1-yl)pyrazin-2-yl]ethyl}-2-(4-methyl-5-oxo-2,5-dihydrofuran-3-yl)-1-oxo-2-aza-8-azoniaspiro[4.5]decane]: 0.02 µM; for `CC1=C(N2CCC3(CCN(C[C@@H](O)c4cnc(-n5cnnn5)cn4)CC3)C2=O)COC1=O` [Example 25, 8-{(2R)-2-hydroxy-2-[5-(1H-tetrazol-1-yl)pyrazin-2-yl]ethyl}-2-(4-methyl-5-oxo-2,5-dihydrofuran-3-yl)-1-oxo-2-aza-8-azoniaspiro[4.5]decane]: 0.03 µM. As for `CC1=C(N2CCC3(CCN(C[C@H](O)c4cnc(-n5cnnn5)c(F)c4)CC3)C2=O)COC1=O` [Example 26, 8-{(2R)-2-[5-fluoro-6-(1H-tetrazol-1-yl)pyridin-3-yl]-2-hydroxyethyl}-2-(4-methyl-5-oxo-2,5-dihydrofuran-3-yl)-1-oxo-2-aza-8-azoniaspiro[4.5]decane], the figure is 0.04 µM. `CC1=C(N2CCC3(CCN(C[C@@H](O)c4cnc(-n5cnnn5)c(F)c4)CC3)C2=O)COC1=O` [Example 27, 8-{(2S)-2-[5-fluoro-6-(1H-tetrazol-1-yl)pyridin-3-yl]-2-hydroxyethyl}-2-(4-methyl-5-oxo-2,5-dihydrofuran-3-yl)-1-oxo-2-aza-8-azoniaspiro[4.5]decane] gave an IC50 of 0.02 µM. This IC50 lies about 2-fold lower than the previous one. As for `CC1=C(N2CCC3(CCN(C[C@H](O)c4ncc(-n5cnnn5)cc4C)CC3)C2=O)COC1=O` [Example 28, 8-{(2S)-2-hydroxy-2-[3-methyl-5-(1H-tetrazol-1-yl)pyridin-2-yl]ethyl}-2-(4-methyl-5-oxo-2,5-dihydrofuran-3-yl)-1-oxo-2-aza-8-azoniaspiro[4.5]decane], the figure is 0.03 µM; as for `CC1=C(N2CCC3(CCN(C[C@@H](O)c4ncc(-n5cnnn5)cc4C)CC3)C2=O)COC1=O` [Example 29, 8-{(2R)-2-hydroxy-2-[3-methyl-5-(1H-tetrazol-1-yl)pyridin-2-yl]ethyl}-2-(4-methyl-5-oxo-2,5-dihydrofuran-3-yl)-1-oxo-2-aza-8-azoniaspiro[4.5]decane], 0.04 µM; as for `CC1=C(N2CCC3(CCN(C[C@H](O)c4ccc(-n5cnnn5)c(C)n4)CC3)C2=O)COC1=O` [Example 30, 8-{(2S)-2-hydroxy-2-[6-methyl-5-(1H-tetrazol-1-yl)pyridin-2-yl]ethyl}-2-(4-methyl-5-oxo-2,5-dihydrofuran-3-yl)-1-oxo-2-aza-8-azoniaspiro[4.5]decane], 0.02 µM. Take `CC1=C(N2CCC3(CCN(C[C@@H](O)c4ccc(-n5cnnn5)c(C)n4)CC3)C2=O)COC1=O` [Example 31, 8-{(2R)-2-hydroxy-2-[6-methyl-5-(1H-tetrazol-1-yl)pyridin-2-yl]ethyl}-2-(4-methyl-5-oxo-2,5-dihydrofuran-3-yl)-1-oxo-2-aza-8-azoniaspiro[4.5]decane]: the IC50 was found to be 0.03 µM. Against the preceding compound, the IC50 is about 1.5-fold higher.

As to `CC1=C(N2CCC3(CCN(C[C@H](O)c4ccc(-n5cnnn5)nn4)CC3)C2=O)COC1=O` [Example 32, 8-{(2S)-2-hydroxy-2-[6-(1H-tetrazol-1-yl)pyridazin-3-yl]ethyl}-2-(4-methyl-5-oxo-2,5-dihydrofuran-3-yl)-1-oxo-2-aza-8-azoniaspiro[4.5]decane], the midpoint of inhibition, the IC50, lay at 0.02 µM. The same measure for `CC1=C(N2CCC3(CCN(C[C@@H](O)c4ccc(-n5cnnn5)nn4)CC3)C2=O)COC1=O` [Example 33, 8-{(2R)-2-hydroxy-2-[6-(1H-tetrazol-1-yl)pyridazin-3-yl]ethyl}-2-(4-methyl-5-oxo-2,5-dihydrofuran-3-yl)-1-oxo-2-aza-8-azoniaspiro[4.5]decane]: 0.02 µM; for `CC1=C(N2CCC3(CCN(C[C@H](O)c4ccc(-n5cnnn5)cc4)CC3)C2=O)COC1=O` [Example 34, 8-{(2R)-2-hydroxy-2-[4-(1H-tetrazol-1-yl)phenyl]ethyl}-2-(4-methyl-5-oxo-2,5-dihydrofuran-3-yl)-1-oxo-2-aza-8-azoniaspiro[4.5]decane]: 0.01 µM. For `CC1=C(N2CCC3(CCN(C[C@@H](O)c4ccc(-n5cnnn5)cc4)CC3)C2=O)COC1=O` [Example 35, 8-{(2S)-2-hydroxy-2-[4-(1H-tetrazol-1-yl)phenyl]ethyl}-2-(4-methyl-5-oxo-2,5-dihydrofuran-3-yl)-1-oxo-2-aza-8-azoniaspiro[4.5]decane], 0.01 µM corresponded to half-maximal inhibition (IC50). For the compound `CC1=C(N2CCC3(CCN(C[C@H](O)c4ccc(-n5cnnn5)cc4F)CC3)C2=O)COC1=O` [Example 36, 8-{(2R)-2-[2-fluoro-4-(1H-tetrazol-1-yl)phenyl]-2-hydroxyethyl}-2-(4-methyl-5-oxo-2,5-dihydrofuran-3-yl)-1-oxo-2-aza-8-azoniaspiro[4.5]decane], the midpoint of inhibition, the IC50, lay at 0.01 µM. As to `CC1=C(N2CCC3(CCN(C[C@@H](O)c4ccc(-n5cnnn5)cc4F)CC3)C2=O)COC1=O` [Example 37, 8-{(2S)-2-[2-fluoro-4-(1H-tetrazol-1-yl)phenyl]-2-hydroxyethyl}-2-(4-methyl-5-oxo-2,5-dihydrofuran-3-yl)-1-oxo-2-aza-8-azoniaspiro[4.5]decane], the midpoint of inhibition, the IC50, lay at 0.01 µM. `CC1=C(N2CCC3(CCN(C[C@H](O)c4ccc(-n5cnnn5)cc4C)CC3)C2=O)COC1=O` [Example 38, 8-{(2R)-2-hydroxy-2-[2-methyl-4-(1H-tetrazol-1-yl)phenyl]ethyl}-2-(4-methyl-5-oxo-2,5-dihydrofuran-3-yl)-1-oxo-2-aza-8-azoniaspiro[4.5]decane]: half-maximal inhibition (IC50) was put at 0.01 µM. This lies in the double-digit nanomolar range.
